From paper PMC9516332 (Frontiers in Oncology, 2022)
pIC50: −log10 of the molar value. Where two headings read alike, the source gives them in different places.

System: 134 cancer cell lines
Assay: Cell viability assay (ATPlite, 72 hours), IC50 on cancer cell line panel

With `COc1ccc(CN2C3CC2CN(c2ccc(-c4cc(OCC(C)(C)O)cn5ncc(C#N)c45)cn2)C3)cn1` [selpercatinib] the pIC50 (Homo sapiens, MOLT-4, read-out: IC50 in cell proliferation assay, MOLT-4 cell line) was 5.78, the pIC50 (Homo sapiens, MV4-11, read-out: IC50 in cell proliferation assay, MV4-11 cell line (FLT3 ITD)) was 6.78 and the pIC50 (Homo sapiens, MeWo, read-out: IC50 in cell proliferation assay, MeWo cell line) was 5.26. The pIC50 (Homo sapiens, NCCIT, read-out: IC50 in cell proliferation assay, NCC-IT cell line) was 5.80, the pIC50 (Homo sapiens, NCI-H82, read-out: IC50 in cell proliferation assay, cell line NCI-H82) was 5.49 and the pIC50 (Homo sapiens, NCI-H460, read-out: IC50 in cell proliferation assay, NCI-H460 cell line) was 5.37. For the same compound, the pIC50 (Homo sapiens, NCI-H661, read-out: IC50 in cell proliferation assay, NCI-H661 cell line) was 5.06, the pIC50 (Homo sapiens, NCI-H716, read-out: IC50 in cell proliferation assay, cell line NCI-H716 (FGFR2-COL14A1)) was 6.58 and the pIC50 (Homo sapiens, NCI-H1650, read-out: IC50 in cell proliferation assay, NCI-H1650 cell line (EGFR exon19del)) was 5.13. It also gave a pIC50 (Homo sapiens, NCI-H1975, read-out: IC50 in cell proliferation assay, NCI-H1975 cell line (EGFR p.L858R + p.T790M)) of 4.65, a pIC50 (Homo sapiens, NCI-H2228, read-out: IC50 in cell proliferation assay, NCI-H2228 cell line (EML4-ALK)) of 4.99 and a pIC50 (Homo sapiens, OVCAR-3, read-out: IC50 in cell proliferation assay, cell line OVCAR-3) of 5.25. For the same compound, the pIC50 (Homo sapiens, PFSK-1, read-out: IC50 in cell proliferation assay, cell line PFSK-1) was < 4.50, the pIC50 (Homo sapiens, RL95-2, read-out: IC50 in cell proliferation assay, cell line RL95-2 (EGFR p.A289V)) was 5.64 and the pIC50 (Homo sapiens, RPMI-7951, read-out: IC50 in cell proliferation assay, cell line RPMI-7951 (BRAF p.V600E)) was 5.25. For the same compound, the pIC50 (Homo sapiens, RS4-11, read-out: IC50 in cell proliferation assay, cell line RS4;11) was 5.79, the pIC50 (Homo sapiens, Rec1, read-out: IC50 in cell proliferation assay, cell line REC-1) was 5.14 and the pIC50 (Homo sapiens, SHP77, read-out: IC50 in cell proliferation assay, cell line SHP-77) was 5.09. For the same compound, the pIC50 (Homo sapiens, SK-BR-3, read-out: IC50 in cell proliferation assay, cell line SK-BR-3 (ERBB2 amplification)) was 4.65, the pIC50 (Homo sapiens, SK-N-AS, read-out: IC50 in cell proliferation assay, cell line SK-N-AS) was 5.42 and the pIC50 (Homo sapiens, SK-N-FI, read-out: IC50 in cell proliferation assay, cell line SK-N-FI) was 5.40. The pIC50 (Homo sapiens, SK-N-MC, read-out: IC50 in cell proliferation assay, cell line SK-N-MC) was 5.48, the pIC50 (Homo sapiens, SK-N-SH, read-out: IC50 in cell proliferation assay, cell line SK-N-SH (ALK p.F1174L)) was 5.59 and the pIC50 (Homo sapiens, SNU-5, read-out: IC50 in cell proliferation assay, cell line SNU-5 (MET amplification)) was < 4.50. For the same compound, the pIC50 (Homo sapiens, SNU-16, read-out: IC50 in cell proliferation assay, cell line SNU-16 (FGFR2 amplification)) was 6.52, the pIC50 (Homo sapiens, SNU-C2B, read-out: IC50 in cell proliferation assay, cell line SNU-C2B (EGFR p.R165Q)) was < 4.50 and the pIC50 (Homo sapiens, SU-DHL-1, read-out: IC50 in cell proliferation assay, cell line SU-DHL-1 (NPM1-ALK)) was 5.56. For the same compound, the pIC50 (Homo sapiens, SU-DHL-6, read-out: IC50 in cell proliferation assay, cell line SU-DHL-6) was 5.34, the pIC50 (Homo sapiens, SUP-T1, read-out: IC50 in cell proliferation assay, cell line SUP-T1) was 5.63 and the pIC50 (Homo sapiens, SW48, read-out: IC50 in cell proliferation assay, cell line SW48 (EGFR p.G719S)) was 5.56. The pIC50 (Homo sapiens, SW480, read-out: IC50 in cell proliferation assay, cell line SW480) was 5.40, the pIC50 (Homo sapiens, SW626, read-out: IC50 in cell proliferation assay, cell line SW626) was < 4.50 and the pIC50 (Homo sapiens, SW780, read-out: IC50 in cell proliferation assay, cell line SW780 (FGFR3-BAIAP2L1)) was 5.71. The pIC50 (Homo sapiens, SW837, read-out: IC50 in cell proliferation assay, cell line SW837) was 5.46, the pIC50 (Homo sapiens, SW872, read-out: IC50 in cell proliferation assay, cell line SW872 (BRAF p.V600E)) was 5.24 and the pIC50 (Homo sapiens, SW900, read-out: IC50 in cell proliferation assay, cell line SW900) was 5.30. The pIC50 (Homo sapiens, SW948, read-out: IC50 in cell proliferation assay, cell line SW948) was 5.41, the pIC50 (Homo sapiens, SW982, read-out: IC50 in cell proliferation assay, cell line SW982 (BRAF p.V600E)) was 5.45 and the pIC50 (Homo sapiens, SW-620, read-out: IC50 in cell proliferation assay, cell line SW620) was 5.58. The pIC50 (Homo sapiens, T98G, read-out: IC50 in cell proliferation assay, cell line T98G) was 5.57, the pIC50 (Homo sapiens, TCC-SUP, read-out: IC50 in cell proliferation assay, cell line TCCSUP) was 5.51 and the pIC50 (Homo sapiens, THP-1, read-out: IC50 in cell proliferation assay, cell line THP-1) was < 4.50. For the same compound, the pIC50 (Homo sapiens, U2OS, read-out: IC50 in cell proliferation assay, cell line U2OS) was 5.32, the pIC50 (Homo sapiens, U-87 MG, read-out: IC50 in cell proliferation assay, cell line U-87MG ATCC) was < 4.50 and the pIC50 (Homo sapiens, U-118-MG, read-out: IC50 in cell proliferation assay, cell line U-118MG) was 5.20. It also gave a pIC50 (Homo sapiens, UMUC3, read-out: IC50 in cell proliferation assay, cell line UM-UC-3) of 5.89, a pIC50 (Hs766T, read-out: IC50 in cell proliferation assay, Hs 766T cell line) of 5.30 and a pIC50 (L-82, read-out: IC50 in cell proliferation assay, L-82 cell line (NPM1-ALK)) of 5.28. The pIC50 (Rh30, read-out: IC50 in cell proliferation assay, cell line Rh30) was 5.39, the pIC50 (read-out: IC50 in cell proliferation assay, 11-18 cell line (EGFR p.L858R)) was 5.39 and the pIC50 (read-out: IC50 in cell proliferation assay, Hs 852.T cell line) was 5.23. For the same compound, the pIC50 (read-out: IC50 in cell proliferation assay, JAR cell line) was 5.36, the pIC50 (read-out: IC50 in cell proliferation assay, cell line 5637) was 5.34 and the pIC50 (read-out: IC50 in cell proliferation assay, cell line A-388) was 5.02. The pIC50 (read-out: IC50 in cell proliferation assay, cell line DB) was 5.47, the pIC50 (read-out: IC50 in cell proliferation assay, cell line DEL (NPM1-ALK)) was 5.47 and the pIC50 (read-out: IC50 in cell proliferation assay, cell line ES-2 (BRAF p.V600E)) was < 4.50. It also gave a pIC50 (read-out: IC50 in cell proliferation assay, cell line PA-1) of 5.74, a pIC50 (read-out: IC50 in cell proliferation assay, cell line PC-3) of 5.41 and a pIC50 (read-out: IC50 in cell proliferation assay, cell line RD) of 5.16. It also gave a pIC50 (read-out: IC50 in cell proliferation assay, cell line RKO (BRAF p.V600E)) of 5.29, a pIC50 (read-out: IC50 in cell proliferation assay, cell line RL) of 5.69 and a pIC50 (read-out: IC50 in cell proliferation assay, cell line RT-4 (FGFR3-TACC3)) of 5.86. It also gave a pIC50 (read-out: IC50 in cell proliferation assay, cell line SR (NPM1-ALK)) of 5.59, a pIC50 (read-out: IC50 in cell proliferation assay, cell line T24) of 5.29 and a pIC50 (read-out: IC50 in cell proliferation assay, cell line TT (RET p.C634W)) of 7.72. It also gave a pIC50 (read-out: IC50 in cell proliferation assay, cell line VA-ES-BJ) of 5.55.
